Test results from patent US20260224555A1, “NEW PHENYLQUINOLONE COMPOUND HAVING ANTIBACTERIAL AND ANTI-CANCER FUNCTIONS AND PREPARATION THEREOF” (AlphaMol Science Ltd (Shanghai), priority 2022, published 2026).
pIC50: −log10 of the molar value.

What was measured:
E. feacium ATCC 700221 = assay: In vitro antibacterial activity assay (MIC, broth dilution); format: cell-based; conditions: Table 1; read-out: G+ bacteria MIC E. feacium ATCC 700221
From the text: (§1) The method used to indicate the activity of the compounds in this example is to record the minimum inhibitory concentration (MIC) of the compounds against bacteria. The specific experimental method is as follows:
(§2) 1. The bacterial liquid cultured from a single colony was taken, and diluted into autoclaved CAMHB broth in a ratio of 1:1000, and mixed well.
(§3) 2. The prepared drug solution was filtered through a sterile 0.22 µm syringe filter and placed in a sterile EP tube for later use.
(§4) 3. A 96-well plate was taken, and 20 µL of drug solution ([…]) was added to each well in the first column of the 96-well plate. Then, 180 µL of diluted bacterial liquid was added and mixed well (Perform 3 replicate rows for each drug).
(§5) The same process was performed for the hydrochloride drug.
(§6) 4. 100 μL of diluted bacterial liquid was added to each well in the remaining 11 columns of the 96-well plate. Drugs are the same as above.
(§7) 5. Serial dilution: 100 μL of liquid was taken from the first column to the second column, mixed well, then 100 μL of liquid was taken from the second column to the third column, mixed well, and so on, sequentially diluting down to the last column (column 12). After mixing column 12 well, 100 μL of liquid thereof was discarded. The drug concentration in each well was decreased by two-fold serially (the concentration in the first well is 40 μg/mL).
(§8) 6. Blank CAMHB broth without added bacteria liquid was added to 3 blank wells in the 96-well plate, as negative control.
(§9) 7. The diluted bacterial liquid was added to 3 blank wells in the 96-well plate, as positive control.
(§10) 8. Incubated at 37° C. for 16 hours.
(§11) 9. Results reading: the minimum inhibitory concentration is the minimum drug concentration at which no bacterial growth is visible to the naked eye and without turbidity.

S. aureus ATCC 43300 = assay: as above; format: cell-based; conditions: Staphylococcus aureus, ATCC43300; Table 1; read-out: G+ bacteria MIC S. aureus ATCC 43300
From the text: as §1, §2, §3, §4, §5, §6, §7, §8, §9, §10, §11

[1] = test system: human Burkitt's lymphoma cell Raji; assay: In vitro anticancer activity test (MTT cell proliferation); format: cell-based
Protocol: (§12) The anticancer activity of the compounds was tested using an in vitro cancer cell tests. The specific test method is as follows:
(§13) 1. Cell recovery and culture method: the cryovial was taken out from the liquid nitrogen container firstly, soaked directly in 37° C. warm water, and shaked from time to time to let it thaw as soon as possible. Then, the cryovial was transferred to a clean bench, and the lid was open. The cell suspension was taken into a centrifuge tube using a rubber-tipped dropper and more than 10 times the culture medium was added, mixed well, and centrifuged at 50 g for 5 minutes. Then, the supernatant was discarded, complete culture medium containing 10% fetal bovine serum was added to resuspend the cells, the cells was counted, the cell density was adjusted, and then inoculated into a culture bottle. The culture bottle was placed in a cell culture incubator at 5% CO2 and 37° C. The complete culture medium was replaced once the next day and the culture was continued.
(§14) 2. Cell passaging method: adherent cells in the logarithmic growth phase were placed in a clean bench, the original culture medium was discarded, and washed three times with 1×PBS. An appropriate amount of 0.25% trypsin digestion solution was added to moisten the cells, and then the trypsin solution was aspirated. The cells were placed in a cell culture incubator at 5% CO2 and 37° C. for digestion for a suitable time, and observed under a microscope. When 90% of the cells become round, the cells were moved immediately to the clean bench and complete culture medium was added to terminate digestion. Then, the cells were dislodged by pipetting up and down with a rubber-tipped dropper to single cells. The cells were counted, and the cell density was adjusted. The cells were inoculated into a suitable culture bottle or dish, added enough complete culture medium, and placed in a cell culture incubator at 5% CO2 and 37° C. for static culture.
(§15) For suspension cells in the logarithmic phase, the original culture medium was directly centrifuged at 50 g for 5 minutes, the supernatant was discarded, and the cells were washed once with PBS and centrifuged. After discarding the supernatant, the complete culture medium was added and the cells were dispersed using a rubber-tipped dropper. The cells are counted, and the cell density was adjusted. The cells were inoculated into appropriate culture bottles or culture dishes, and sufficient complete culture medium was added, and the cells were cultured in a cell culture incubator at 5% CO2 and 37° C.
(§16) 3. Cell proliferation assay: cells in good state in logarithmic phase were taken and appropriate amount of the cells was inoculated into 96-well plates according to the cell passage treatment method, with each well containing 180 μL complete medium. After the cells growth was recovered and the number of cells in each well is 5000±500, a drug was added for treatment.
(§17) After drug treatment during the experimental time, MTT solution with a final concentration of 0.5 mg/mL was added to each well, and placed in a cell culture incubator at 5% CO2 and 37° C. to allow a fully reaction of MTT with cells. After 4 hours, the solution in the 96-well plate was discarded, 100 µL of DMSO was added, and shaked to dissolve the formazan precipitated at the bottom of the plate, and the absorbance value of samples was detected at a wavelength of 570 nm using a microplate reader. Calculation method of cell viability rate: […]

[2] = test system: Staphylococcus aureus ATCC43300; assay: Resistance test of bacteria against compounds (serial induction, 21 days); format: cell-based; conditions: start of resistance test, S. aureus ATCC43300
Protocol: This example provides a resistance test of bacteria against compounds, and the specific experimental method is as follows.
1. […] It was ensured that among the 6 final concentrations of the drug diluted into the wells, some were higher than the original MIC of the bacteria and some were lower than the original MIC of the bacteria.
2. Preparation of bacterial liquid: 10 mL of culture medium was taken and added to a sterilized plate using a pipette, then 100 µL of the above-mentioned passaged bacterial liquid was added, and mixed well for later use.
3. The above-mentioned diluted bacterial liquid was taken and added to a 96-well plate using a pipette, 180 μL per well, 3 wells per group, 6 groups in total. 20 μL of drug solution was added to each well (note: it is necessary to replace the pipette tip each time the drug is added), so that the final drug concentrations were […], respectively. The well with 200 μL of diluted bacterial liquid was used as the positive control well, and the well with 200 μL of culture medium was used as the negative control well.
The test object was Staphylococcus aureus (S. aureus).

[3] = test system: human acute monocytic leukemia cell THP-1; assay: In vitro anticancer activity test (MTT cell proliferation); format: cell-based
Protocol: as §12, §13, §14, §15, §16, §17

[4] = test system: human acute myeloid leukemia cell MOLM-13; assay: as above; format: cell-based
Protocol: as §12, §13, §14, §15, §16, §17

[5] = test system: human liver cancer cell BLE-7402; assay: as above; format: cell-based
Protocol: as §12, §13, §14, §15, §16, §17

[6] = test system: human renal cancer cell OS-RC-2; assay: as above; format: cell-based
Protocol: as §12, §13, §14, §15, §16, §17

[7] = test system: human bladder transitional cell carcinoma cell T24; assay: as above; format: cell-based; conditions: T-24
Protocol: as §12, §13, §14, §15

[8] = test system: human epidermal carcinoma cell A431; assay: as above; format: cell-based; conditions: A-431
Protocol: as §12, §13, §14, §15

[9] = test system: Staphylococcus aureus ATCC43300; assay: Systemic blood infection animal model; format: in vivo, mice; conditions: for number of colonies of liver and kidney: 3 times a day, 7 days
Protocol: (2) Sterile phosphate buffered saline (PBS) was used to prepare a 1×10^7 CFU/mL Staphylococcus aureus ATCC43300 bacterial suspension for later use; the drug dosage required for mice was calculated for each group, and solutions of Example 34 and solvent for gavage (400 or 200 μL of Tween 80 was mixed with Example 34, grinded with an agate mortar until it became transparent, and then 0.5% sodium carboxymethyl cellulose solution was added to reach the required concentration and volume of the test drug) were prepared for later use.
(3) Except for the blank group, 100 μL of the bacterial suspension prepared in step 2 was injected into the tail vein of each mouse.
(4) 2 hours after the challenge, the drugs prepared in step 2 were administered by oral gavage according to the groups, 3 times a day, 200 uL each time, with an interval of 8 hours, for a total of 7 days. Mice were administered by oral gavage with the drug solvent for the model group and the blank group.
(5) 8 h after the last administration, mice were euthanized by cervical dislocation, disinfected with 75% alcohol, and then necropsied under sterile conditions. The kidneys and livers were harvested, observed and photographed, and the weight was recorded.
(6) The kidneys and livers were placed in a sterile glass grinder and sterile PBS in a volume ten times the weight of the organs was added and grinded. The grinding solutions were taken out, 10-fold serially diluted, smeared to a TSA solid culture medium, and incubated at 37° C. for 16 hours, then the colonies were counted. The number of colonies of the organs was calculated to evaluate the therapeutic effect.

For `CCCCCNS(=O)(=O)c1ccc(-c2c(F)cc3c(=O)c(C(=O)O)cn(C4CC4)c3c2Cl)cn1` [Example 20, 8-chloro-1-cyclopropyl-6-fluoro-4-oxo-7-(6-(N-pentylaminosulfonyl)pyridine-3-yl)-1,4-dihydroquinolin-3-carboxylic acid], the MIC (E. feacium ATCC 700221) was > 8 µg/mL and the MIC (S. aureus ATCC 43300) was ≤ 0.1 µg/mL.

`Cc1c(-c2cnc(N)nc2)c(F)cc2c(=O)c(C(=O)O)cn(C3CC3)c12` [compound 1, reference compound] was tested, and the pIC50 [1] was ≤ 4.40.

`O=C(O)c1cn(C2CC2)c2c(Cl)c(-c3ccc(S(=O)(=O)NCCCC(F)(F)F)nc3)c(F)cc2c1=O` [Example 34, 8-chloro-1-cyclopropyl-6-fluoro-4-oxo-7-(6-(N-(4,4,4-trifluorobutyl)sulfamoyl)pyridin-3-yl)-1,4-dihydroquinolin-3-carboxylic acid] was tested, and the “initial MIC compared with marketed drugs” value [2] was “superior to the marketed drugs ciprofloxacin and vancomycin”, the pIC50 [3] was 5.00 to 6.00 and the pIC50 [4] was 5.00 to 6.00. It also gave a pIC50 [5] of 5.00 to 6.00, a pIC50 [6] of 5.00 to 6.00 and a pIC50 [7] of 5.00 to 6.00. For the same compound, the pIC50 [8] was 5.00 to 6.00, the “number of colonies of liver and kidney” value ([9]; 1 mg/kg oral gavage) was “significant statistical difference from the control group” and the “number of colonies of liver and kidney” value ([9]; 4 mg/kg oral gavage) was “good antibacterial effect”. The “antibacterial effect in the liver and kidney (number of colonies of organs)” value ([9]; compared with the positive drug ciprofloxacin) was “very significant antibacterial effect”.

With `O=C(O)c1cn(C2CC2)c2cc(N3CCNCC3)c(F)cc2c1=O` [Reference compound 2 (Ciprofloxacin), reference compound] the pIC50 [3] was < 4.00, the pIC50 [4] was < 4.00 and the pIC50 [5] was < 4.00. The pIC50 [6] was < 4.00.
